# Columns and labels:
# Format in all cases: biochemical, influenza A/Chungbuk/4448/2008(H1N1) virus
# [1] = target: neuraminidase (NA) of recombinant virus Chungbuk-Y275H-E119V (Influenza A virus, UniProt E3JK96, E119V/Y275H)
# [2] = target: neuraminidase (NA) of recombinant virus Chungbuk-Y275H-N295S-I117V (Influenza A virus (A/Chungbuk/4448/2008(H1N1)), UniProt E3JK96, I117V/N295S/Y275H)
# [3] = target: neuraminidase (NA) of recombinant virus Chungbuk-Y275H-N295S-I117M (Influenza A virus (A/Chungbuk/4448/2008(H1N1)), UniProt E3JK96, I117M/N295S/Y275H)
# [4] = target: neuraminidase (NA) of recombinant virus Chungbuk-Y275H-N295S-I223V (Influenza A virus (A/Chungbuk/4448/2008(H1N1)), UniProt E3JK96, I223V/N295S/Y275H)
# [5] = target: neuraminidase (NA) of recombinant virus Chungbuk-Y275-E119V (Influenza A virus, UniProt E3JK96, E119V)
# [6] = target: neuraminidase (NA) of recombinant virus Chungbuk-Y275-N295S-I117M (Influenza A virus, UniProt E3JK96, I117M/N295S)
# [7] = target: neuraminidase (NA) of recombinant virus Chungbuk-Y275-N295S-I223V (Influenza A virus, UniProt E3JK96, I223V/N295S)
# [8] = tested on: NA of all the single, double, and triple mutants containing the E119V mutation
# [9] = tested on: NA of all the single and double mutants containing tyrosine (Y) at NA residue 275 except Chungbuk-Y275-E119V
structure (smiles),measurement,setting,value
CC(=O)N[C@H]1[C@H]([C@H](O)[C@H](O)CO)OC(C(=O)O)=C[C@@H]1N=C(N)N [Zanamivir],NAI resistance phenotype,[1],important levels of resistance
same,NAI resistance phenotype,[2],susceptible
same,NAI resistance phenotype,[3],susceptible
same,NAI resistance phenotype,[4],susceptible
same,NAI resistance phenotype,[5],important levels of resistance
same,NAI resistance phenotype,[6],susceptible
same,NAI resistance phenotype,[7],susceptible
same,NAI resistance phenotype,[8],resistance
same,NAI resistance phenotype,[9],susceptibility
